Data from patent publication US8992891B2, “Therapeutic approaches for treating CMT and related disorders” (Pharnext, priority 2007, dated 2015).

Experiments:
[1] = system: PMP22 mRNA; experiment: PMP22 mRNA level by quantitative RT-PCR after drug stimulation of rat Schwann cell primary culture; assay type: cell-based; parameters: key: +: significantly decreases PMP22 levels compared to control; details: rat primary Schwann cells, drug incubation 24 hrs
Method: After cells being platted in 12 well-dishes, the medium is replaced by a defined medium consisting in a mix of DMEM-F12 (Invitrogen #21331020) complemented by 1% of N2 supplement (Invitrogen #17502), 1% L-Glutamine (Invitrogen #25030024) 2.5% FBS (Sciencell #0025), 0.02 μg/ml of corticosterone (Sigma #C2505), 4 μM Forskolin and 50 μg/ml of gentamycin. Growth factors are not added to this medium, to promote SC differentiation
24 hours later, the medium is replaced by a defined medium (DMEM-F12) complemented with 1% Insulin-Transferrin-Selenium-X (ITS, Invitrogen #51300), 16 μg/ml of Putrescine (Sigma #P5780), 0.02 μg/ml of corticosterone and 50 μg/ml of gentamicin. At this step, neither progesterone nor forskolin are present in the medium.
One day later, Schwann cells are stimulated by combinations of drugs or drugs alone during 24 hrs (3 wells/condition). The preparation of each compound is performed just prior to its addition to the cell culture medium.
Drugs are added to a defined medium composed of DMEM-F12, with 1% Insulin-Transferrin-Selenium-X (ITS, Invitrogen #51300), 16 μg/ml of Putrescine, 0.02 μg/ml of corticosterone, 10 nM Progesterone and 50 μg/ml of gentamicin. The absence of Forskolin during drug stimulation avoids adenylate cyclase saturation.
Quantitative RT-PCR is used to compare the levels of PMP22 mRNA after drug stimulation, relative with housekeeping Ribosomal L13A mRNA in rat Schwann cell primary culture.
After rinsing with cold sterilized PBS, total RNAs from each cell sample are extracted and purified from SC using the Qiagen RNeasy micro kit (Qiagen #74004). Nucleic acids are quantified by Nanodrop spectrophotometer using 1 μl of RNA sample. The RNA integrity is determined through a BioAnalyzer (Agilent) apparatus.
RNAs are reverse-transcribed into cDNA according to standard protocol. cDNA templates for PCR amplification are synthesized from 200 ng of total RNA using SuperScript II reverse-transcriptase (Invitrogen #18064-014) for 60 min at 42° C. in the presence of oligo(dT), in a final volume of 20 μl.
cDNAs are subjected to PCR amplification using the ? LightCycler® 480 ? system (Roche Molecular Systems Inc.) Each cDNA are diluted five times before being used for PCR amplification. 2.5 μl of this cDNAs enters the PCR reaction solution (final volume of 10 μl). Preliminary experiments ensured that quantitation was done in the exponential phase of the amplification process for both sequences and that expression of the reference gene was uniform in the different culture conditions.
PCR reaction is performed by amplification of 500 nM of forward primer of rat PMP22 (NM_017037), 5-GGAAACGCGAATGAGGC-3 (SEQ ID NO: 1), and 500 nM of reverse primer 5-GTTCTGTTTGGTTTGGCTT-3 (SEQ ID NO: 2) (amplification of 148-bp). A 152-bp fragment of the RPL13A ribosomal (NM_173340) RNA is amplified in parallel in separate reactions for normalization of the results by using 500 nM of forward primer 5-CTGCCCTCAAGGTTGTG-3 (SEQ ID NO: 3), and 500 nM of reverse primer 5-[…]-3 (SEQ ID NO: 4).
We used FRET chemistry to perform RT-Q-PCR analysis. FRET probes are composed of 0.3 μM of Pmp22-FL-5-[…] (SEQ ID NO: 5) or Rpl13A-FL-5-TCGGGTGGAAGTACCAGCC (SEQ ID NO: 6), labelled at their 3′ end with a donor fluorophore dye (Fluorescein). 0.15 μM Red640 probes are defined as follows: Pmp22-red-5′-[…]- (SEQ ID NO: 7) or Rpl13A-red-5′-[…] (SEQ ID NO: 8), labelled at their 5′ end with an acceptor fluorophore dye (Rhodamine Red 640).
Each PCR reaction contained 2.5 μl cDNA template in a final volume of 10 μl of master mix kit (Roche #04-887301001).
The following PCR conditions are used: 10 sec at 95° C., 10 sec at 63° C. and 12 sec at 72° C. and 30 sec at 40° C. (Forty amplification cycles). The relative levels of PMP22 gene expression is measured by determining the ratio between the products generated from the target gene PMP22 and the endogenous internal standard RPL13A. […]

[2] = system: PMP22 protein; experiment: PMP22 protein expression analysis by flow cytometry (FACS) in Schwann cells; assay type: cell-based, rat; parameters: key to Protein (PMP22 expression decrease): +: significantly decreases PMP22 levels compared to control; details: rat primary Schwann cells, FACS, 24 hrs
Method: One day later, Schwann cells are stimulated by combinations of drugs or drugs alone during 24 hrs (3 wells/condition). The preparation of each compound is performed just prior to its addition to the cell culture medium. Drugs are added to a defined medium composed of DMEM-F12, with 1% Insulin-Transferrin-Selenium-X (ITS, Invitrogen #51300), 16 μg/ml of Putrescine, 0.02 μg/ml of corticosterone, 10 nM Progesterone and 50 μg/ml of gentamicin. The absence of Forskolin during drug stimulation avoids adenylate cyclase saturation. 8 hrs, 24 hrs and 48 hrs after drugs incubation, supernatants are recovered, centrifuged and frozen. SC are detached with trypsin-EDTA. As soon as the majority of cells are in suspension, the trypsin is neutralised using DMEM with 10% FCS. Supernatants with cells are recovered and centrifuged. The pellets of cells are transferred in micro tubes, washed in PBS once and fixed with a specific solution (AbCys #Reagent A BUF09B). 10 minutes later, cells are rinsed once with PBS and kept at 4° C. Five days after cell fixation, all cell preparations with different incubation times are labelled using the following protocol. […] Cells are then centrifuged at 7000 rpm for 5 minutes and cell pellets are rinsed once in PBS. A secondary antibody is added, coupled to Alexa Fluor 488 (goat anti-rabbit IgG, Molecular Probes #A11008, 1/100), for one hour at room temperature. Cells are then centrifuged at 7000 rpm for 5 minutes and cell pellets are rinsed once in PBS. The labelling is increased adding a tertiary antibody coupled to Alexa Fluor 488 (chicken anti-goat IgG, Molecular Probes #A21467, 1/100) for one hour incubation, at room temperature. Cells are then rinsed once in PBS. Control without any antibody (unlabelled cells) is performed to determine the level of autofluorescence and adapted the sensitivity of the photomultiplicators. Control with both secondary and tertiary antibodies but without primary antibody, is performed to assess non specific binding of antibodies. Data acquisition and analysis are performed with a FACS Array cytometer and FACS Array software (Becton Dickinson) on 5000 cells. Forward Scatter (FSC) correlated with cell volume (size) and Side Scatter (SSC) depending on inner complexity of cells (granularity) are analysed. For expression of PMP22, analysis is performed within the total cells and percent of positive cells is calculated. Positive cells are cells with fluorescence intensity higher than the control with secondary antibody. We tested the ability of some drugs to inhibit PMP22 protein expression (FACS analysis). […] The results of the action of some individual drugs on the protein level of PMP22 are also shown on table 1 above.

[3] = system: PMP22; details: transgenic rodent models with over expression of PMP22; cited from earlier work

Structure (SMILES) | mRNA (PMP22 expression decrease) [1] | Protein (PMP22 expression decrease) [2] | PMP22 expression in the transgenic animals [3]
COc1ccc2c(c1)c(CC(=O)O)c(C)n2C(=O)c1ccc(Cl)cc1 [Indomethacin] | + | + | –
O=C1O[C@H]([C@@H](O)CO)C(O)=C1O [ascorbic acid] | – | – | decreased this expression
CC(C)NCC(O)c1ccc(O)c(O)c1 (stereo not drawn) [Isoproterenol] | + | – | –
CN(C)c1ccc([C@H]2C[C@]3(C)[C@@H](CC[C@]3(O)CCCO)[C@@H]3CCC4=CC(=O)CCC4=C32)cc1 [onapristone] | – | – | decreased this expression
CC(C)OC(=O)C(C)(C)Oc1ccc(C(=O)c2ccc(Cl)cc2)cc1 [Fenofibrate] | + | – | –
CCC(C)(C)C(=O)O[C@H]1C[C@@H](C)C=C2C=C[C@H](C)[C@H](CC[C@@H]3C[C@@H](O)CC(=O)O3)[C@H]21 [Simvastatin] | + | – | –
O=C1CC[C@@]2(O)[C@H]3Cc4ccc(O)c5c4[C@@]2(CCN3CC2CC2)[C@H]1O5 [Naltrexone] | + | – | –
CC(C(=O)O)c1ccc(-c2ccccc2)c(F)c1 (stereo not drawn) [Flurbiprofen] | + | + | –
CC(C(=O)O)c1cccc(C(=O)c2ccccc2)c1 (stereo not drawn) [Ketoprofen] | + | + | –
CC#C[C@]1(O)CC[C@H]2[C@@H]3CCC4=CC(=O)CCC4=C3[C@@H](c3ccc(N(C)C)cc3)C[C@@]21C [Mifepristone] | + | – | –
OC[C@@H](O)[C@@H](O)[C@H](O)[C@@H](O)CO [Sorbitol, D-Sorbitol] | + | – | –
CC(C)(O)c1ccccc1CC[C@@H](SCC1(CC(=O)O)CC1)c1cccc(/C=C/c2ccc3ccc(Cl)cc3n2)c1 [Montelukast] | + | – | –
CCN(CC)C(=S)SSC(=S)N(CC)CC [Disulfiram] | + | – | –
C[C@]12CC[C@H]3[C@@H](CC[C@@]45O[C@@H]4C(O)=C(C#N)C[C@]35C)[C@@H]1CC[C@@H]2O [Trilostane] | + | – | –
NCC(CC(=O)O)c1ccc(Cl)cc1 (stereo not drawn) [Baclofen] | + | – | –
O=C(CCCN1CCC(O)(c2ccc(Cl)cc2)CC1)c1ccc(F)cc1 [Haloperidol] | + | – | –
Cc1cnc(NC(=O)C2=C(O)c3ccccc3S(=O)(=O)N2C)s1 [Meloxicam] | + | + | –
C[C@]12CC[C@@H]3c4ccc(O)cc4CC[C@H]3[C@@H]1CC[C@@H]2O [Estradiol-b, Estradiol] | + | – | –
O=C(O)Cc1ccccc1Nc1c(Cl)cccc1Cl [Diclofenac] | + | + | –
